Key:
[1] = tested on: forebrain cholinergic neurons (cultures of rat basal forebrain); assay: ChAT activity in primary cultures of fetal rat basal forebrain (septal) cholinergic neurons treated with neurotrophins and K-252 compounds; format: cell-based; settings: for ED50, stimulation of ChAT activity: mean±S.E., n=8; for NT-3 potentiation (ChAT, cholinergic neurons): 200 ng/ml NT-3 and increasing concentrations of compound (FIG. 6)
Experimental: Recombinant human NGF (rhNGF), BDNF (rhBDNF), and NT-3 (rhNT-3) and K-252b were added to primary cultures of fetal rat brain neurons containing either forebrain cholinergic or midbrain dopaminergic neurons. A broad range of concentrations of K-252b were tested in presence of 50 ng/ml rhNGF, 200 ng/ml rhBDNF and 1 μg/ml rhNT-3, growth factor concentrations producing maximal trophic actions on cholinergic neurons. The trophic action was monitored by measuring the activity of ChAT, a parameter reflecting both survival and transmitter-specific differentiation of cholinergic cells.
(§1) Primary cultures of fetal rat brain septal and mesencephalic cells were prepared in a heretofore known manner [Knusel et al., supra]. Briefly, defined areas were dissected from fetal rat brains (Wistar, E15-16, Charles River, Mass.). The septal area contained the cholinergic neurons from septum, diagonal band of Broca and nucleus basalis. The ventral mesencephalon containing the dopaminergic neurons of the substantia nigra and the ventral tegmental area was dissected and dissociated mechanically. The cells were plated in 16 mm multiwell plates precoated with polyethyleneimine (1 mg/ml, 37° C., overnight), containing 0.5 ml modified L-15 medium supplemented with 5% heat inactivated horse serum and 0.5% heat inactivated fetal calf serum. Modified L-15 was prepared [Knusel et al., "Selective and Nonselective Stimulation of Central Cholinergic and dopaminergic Development in vitro by Nerve Growth Factor, Basic Fibroblast Growth Factor, Epidermal Growth Factor, Insulin and the Insulin-like Growth Factors I and II," J. Neurosci. 10:558-570 (1990)] by adding various amino acids, vitamins, antibiotics, glucose and NaHCO3 to Leibovitz's L-15 medium (Gibco, Grand Island, N.Y.). Plating densities were 4×10^5 cells/cm^2 for basal forebrain cultures and 3×10^5 cells/cm^2 for mesencephalic cultures. Of these cells, 0.5 to 1% were cholinergic or dopaminergic, respectively. Growth factors were typically added on the second day of culture and the cells were grown for 5 or more days. For ChAT assays tissue was homogenized in 250 μl of 50 mM Tris-HCl buffer, pH 6.0 with 0.3% Triton X-100. [1-^14 C]acetylcoenzyme A (NEN) concentration was 20 μM and specific activity 4.09 Ci/mol. To measure dopamine uptake, cultures were preincubated for 5 min at 37° C. with 250 μl incubation solution (5 mM glucose, 1 mM ascorbic acid in PBS) containing 1 mM pargyline. [^3 H]dopamine (37 Ci/mmol) was then added to give a final concentration of 50 nM and the cultures were incubated for another 15 minutes. Blanks were obtained by incubating cells at 0° C.
FIG. 1 illustrates levels of ChAT activity in cultures of rat basal forebrain treated with rhNGF, rhBDNF, or rhNT- and K-252b. Growth factors were added on the second day of culture and the cells were grown for 5 days. Growth factor concentrations producing maximal elevations of ChAT activity were used. In FIG. 1, .largecircle. represents the control; .quadrature., 50 ng/ml rhNGF; Δ, 200 ng/ml rhBDNF; and .tangle-soliddn., 1 μg/ml rhNT-3. The ChAT stimulation mediated by all three neurotrophins was inhibited by K-252b at concentrations above 200 nM. […] N=4 per data point. Error bars represent SEMs and were omitted where they would have appeared smaller than the symbol.
These compounds were accordingly tested for possible NT-3 potentiation at lower concentrations than necessary for NGF inhibition. Culture conditions were as described in Example 1. Cultures were untreated (controls) or treated with 200 ng/ml NT-3 and increasing concentrations of the inhibitors. The findings are shown in FIG. 6, in which "Stau", "K2a", "K2b", "K57", "K58", "K59" represent, respectively, staurosporine, K-252a, K-252b, KT5720, KT5823, and KT5296. […] Staurosporine and KT5296 were ineffective.

[2] = tested on: midbrain dopaminergic neurons (cultures of ventral mesencephalon); assay: Dopamine uptake in primary cultures of fetal rat ventral mesencephalon; format: cell-based; settings: for trophic action on dopaminergic neurons (dopamine uptake): growth factor alone
Experimental: as §1
In Table 1, dopamine uptake is given as fmol/min/culture dish. Cultures were grown in 24-well plates for 7 days in L-15 medium with 5% horse and 0.5% fetal bovine serum and treated with growth factors and K-252b from the second day of culture. rhBDNF, 200 ng/ml; des-IGF-1, 1 μg/ml; n=4; *different from respective control group, p <0.01 (Student's t-test). The apparent difference between control cultures grown in presence and absence of K-252b was statistically not significant. The experiment shown is a representative case of a total of 5 independent experiments.

[3] = tested on: chick dorsal root ganglia neurons (DRG); assay: Survival of dissociated chick DRG neurons (embryonic day 9); format: cell-based; settings: growth factor alone, embryonic day 9 DRG cultures
Experimental: DRGs of embryonic day 9 chicks were dissected and dissociated using enzymatic and mechanical procedures as described in the literature [Rosenthal, A. et al., "Primary Structure and Biological Activity of a Novel Human Neurotrophic Factor," Neuron 4:767-773 (1990)]. 1800 neurons were plated per well in 96-well tissue culture plates pretreated with polyornithine (500 μg/ml) and laminin (10 μg/ml). Cells were incubated for 48 hrs with or without growth factors and the indicated concentrations of K-252b. Phase-bright cells with elaborated neurites 5× the diameter of the cell bodies were then counted.
Similar to the findings obtained in primary cultures of brain cholinergic neurons, low concentration of K-252b (50 nM) potentiated the survival promoting action of a maximally effective concentration of NT-3 (FIG. 3). Survival of dissociated chick DRG neurons in presence of rhNGF (100 ng/ml) or rhNT-3 (100 ng/ml) and K-252b is illustrated in FIG. 3; concentrations on the horizontal axis are for K-252b. The columns represent means +SEMs. […] High concentrations of K-252b (10 μM) inhibited the action of NGF on sensory neurons, as found for cholinergic neurons (FIG. 3).

PC12 cells [4] = assay: Neurite outgrowth of PC12 cells; format: cell-based; settings: NT-3 alone
Experimental: PC12 cells were grown as described earlier [Kaplan et al., 1990, 1991a, b]. To assess effects on neurite outgrowth, cells were incubated for 48 hours with K-252b (50 nM) and NT-3 or NGF (50 ng/ml). Neurites were scored if they were a length of one cell body or more.
(§2) Experiments on PC12 cells confirmed observations made on primary neuron cultures. Treatment with K-252b stimulated NT-3 induced neurite outgrowth and trk tyrosine phosphorylation in PC12 cells while inhibiting NGF induced effects. PC12 cells were incubated for 48 hours with K-252b (50 nM) and NT-3 or NGF (50 ng/ml). FIG. 4A illustrates the % cells with neurites after 48 hours incubation. Neurites were scored if they were a length of one cell body or more. PC12 cells were subsequently lysed and immunoprecipitated with anti-trk serum. trk proteins were subjected to SDS-PAGE and analyzed by immunoblotting with anti-phosphotyrosine antibodies (FIG. 4B). Lane 1, NT-3 +K-252b; lane 2, NT-3; lane 3, NGF +K-252b; lane 4, NGF. For FIG. 4C, PC12 cells were incubated for 1 hour in K-252b (50 nM or 10 μM) and with NT-3 or NGF for 5 minutes prior to lysis; other methods were the same as described for FIG. 4B. Lane 1, NT-3+10 μM K-252b; lane 2, NT-3±50 nM K-252b; lane 3, NT-3; lane 4, NGF+10 μM K-252b; lane 5, NGF+50 nM K-252b; lane 6, NGF; lane 7, untreated control.

trk = trk tyrosine phosphorylation in PC12 cells (immunoprecipitation, anti-phosphotyrosine immunoblot); format: cell-based
Experimental: To measure the status of trk tyrosine phosphorylation, PC12 cells were lysed and immunoprecipitated with anti-trk serum. The trk proteins were subjected to 7.5% SDS-PAGE and analyzed by immunoblotting with anti-phosphotyrosine antibodies as described in detail in the literature [Kaplan, D. R. et al., "PDGF beta receptor stimulates tyrosine phosphorylation of GAP and association of GAP with a signaling complex," Cell 61:125-133 (1990)]. Tyrosine phosphorylation of cellular proteins was assayed by probing Western blots of lysates of PC12 cells incubated with K-252b and NT-3 or NGF with anti-phosphotyrosine antibodies. Phospholipase C gammal was identified in these blots as described elsewhere [Vetter, M.L. et al., "Nerve growth factor rapidly stimulates tyrosine phosphorylation of phospholipase C-gammal by a kinase activity associated with the product of trk protooncogene," Proc. Natl Acad. Sci. USA 88:5650-5654 (1991)].
as §2

Cytotoxicity in vitro = format: cell-based
PC12 cells [5] = settings: cited from earlier work
[6] = tested on: PC12 pheochromocytoma cells; settings: into neuron-like cells; cited from earlier work
[7] = tested on: phosphorylation of selected proteins; settings: cited from earlier work

## NT-3: recombinant human neurotrophin-3
[1]; NT-3 + 50 nM K-252b
  ED50, stimulation of ChAT activity: 0.0143 ± 0.0016 µg/mL
[1]; NT-3 alone
  ED50, stimulation of ChAT activity: 0.175 ± 0.0726 µg/mL
[1]; NT-3 by itself
  elevation of ChAT activity relative to the NGF-induced elevation: approximately 20%
[2]
  trophic action on dopaminergic neurons (dopamine uptake): not
[3]
  promotion of neuronal survival: moderate effect
PC12 cells [4]
  neurite outgrowth induced by growth factor alone: low levels
trk; 48 hours
  trk tyrosine phosphorylation by growth factor alone: no phosphorylation was detectable
trk; acute, 5 minutes
  trk tyrosine phosphorylation by growth factor alone: minimal

## COC(=O)C1(OC)CC2OC1(C)n1c3ccccc3c3c4c(c5c6ccccc6n2c5c31)C(=O)N(C)C4 (stereo not drawn) [KT5823]
[1]
  NT-3 potentiation (ChAT, cholinergic neurons): potentiation similar to K-252b

## COC(=O)C1(O)CC2OC1(C)n1c3ccccc3c3c4c(c5c6ccccc6n2c5c31)C(=O)NC4 (stereo not drawn) [K-252a]
[1]
  NT-3 potentiation (ChAT, cholinergic neurons): potentiation similar to K-252b
[1]; relatively high dosages
  effect on trophic action of NGF on cholinergic neurons (ChAT): completely and selectively prevent
Cytotoxicity in vitro
  cytotoxicity: cytotoxic
PC12 cells [5]
  effect on binding of 125I-NGF to PC12 cells: does not interfere
[6]
  effect on NGF induced morphological transformation of PC12 cells: prevents
[7]; NGF stimulated
  effect on NGF stimulated phosphorylation of selected proteins: inhibits
[7]; bFGF or EGF stimulated
  effect on bFGF or EGF stimulated phosphorylation of selected proteins: not

## CN[C@@H]1C[C@H]2O[C@@](C)([C@@H]1OC)n1c3ccccc3c3c4c(c5c6ccccc6n2c5c31)C(=O)NC4 [staurosporine, reference compound]
[1]
  NT-3 potentiation (ChAT, cholinergic neurons): ineffective
[1]; central cholinergic neurons
  selective inhibition of NGF: selectively inhibit NGF
Cytotoxicity in vitro
  cytotoxicity: cytotoxic

## NGF: recombinant human nerve growth factor
[2]
  trophic action on dopaminergic neurons (dopamine uptake): not
[3]
  promotion of neuronal survival: most effective
trk; 48 hours
  trk tyrosine phosphorylation by growth factor alone: strongly stimulated
trk; acute, 5 minutes
  trk tyrosine phosphorylation by growth factor alone: pronounced increase

## CCCCCCOC(=O)C1(O)CC2OC1(C)n1c3ccccc3c3c4c(c5c6ccccc6n2c5c31)C(=O)NC4 (stereo not drawn) [KT5720]
[1]
  NT-3 potentiation (ChAT, cholinergic neurons): potentiation similar to K-252b

B1: rhBDNF: recombinant human brain-derived neurotrophic factor (protein, UniProt P23560 19-247, looked up)
Neurotrophic factor BDNF …: APMKEANIRGQGGLAYPGVRTHGTLESVNGPKAGSRGLTSLADTFEHVIEELLDEDQKVRPNEENNKDADLYTSRVMLSSQVPLEPPLLFLLEEYKNYLDAANMSMRVRRHSDPARRGELSVCDSISEWVTAADKKTAVDMSGGTVTVLEKVPVSKGQLKQYFYETKCNPMGYTKEGCRGIDKRHWNSQCRTTQSYVRALTMDSKKRIGWRFIRIDTSCVCTLTIKRGR
[2]; No K-252b, rhBDNF 200 ng/ml or des-IGF-1 1 μg/ml
  Dopamine uptake, % of Control: 183%
[2]; No K-252b, rhBDNF 200 ng/ml or des-IGF-1 1 μg/ml, n=4, 7 days
  Dopamine uptake, Mean ± SEM: 28.0 ± 0.3 fmol/min/culture dish
[2]
  trophic action on dopaminergic neurons (dopamine uptake): trophically acts

Reference: patent US6300327A, “Compositions and methods for potentiation of neurotrophin activity” (The University of Southern California, priority 1997, dated 2001)
